Assay results reported in PMC2409936, “Phase I and pharmacokinetic study of XR11576, an oral topoisomerase I and II inhibitor, administered on days 1–5 of a 3-weekly cycle in patients with advanced solid tumours” (British Journal of Cancer, 2004).
Like-named read-outs stand apart in the source and are kept apart here.

Tests used:
[1] = Plasma pharmacokinetics in patients (LC-MS, noncompartmental analysis); type: in vivo, human; settings: for AUC(0-inf) / AUC(0-t) / Cmax / Tmax / half-life: plasma, oral
Procedure: For PK analysis, 58 blood samples (∼5 ml each) were obtained from an indwelling intravenous cannula and collected in vials containing lithium heparin as anticoagulant. The samples were taken immediately before dosing, 30 min and 1, 1.5, 2, 3, 4, 6, 8 and 10 h after administration of the drug on days 1 and 4 (or 5) of the first and second courses. Additional samples were taken immediately prior to dosing on days 2, 3, 4 and 5, and 24, 48, 72, 144 and 312 h after the dose administration on day 5, both in the first and second cycles. From the third cycle onwards, PK samples were taken prior to dosing on day 5 to measure the potential accumulation of XR11576.
(§1) All samples were centrifuged immediately after sampling at 3000 r.p.m. for 10 min at 4°C and the plasma was stored at −20°C or lower in polypropylene tubes in the dark until analysis. A total of four urine samples were also collected over a 24-h period; 0–4, 4–8, 8–12 and 12–24 h post-dosing on day 1 of the first cycle only. Of the total amount collected, a measured quantity of 10 ml was drawn off and stored at −80°C until analysis. Concentrations of XR11576 in plasma were determined according to a validated liquid chromatography-mass spectrometry detection method with liquid–liquid extraction at the Drug Metabolism and Pharmacokinetics Department of Quintiles Limited (Internal Report at Quintiles). The lower limit of quantitation was 5 ng ml^−1.
The apparent terminal half-life (T1/2(z)) of XR11576 was calculated as ln 2/k, where k is the terminal elimination rate constant (expressed in h^−1). The peak plasma concentrations (Cmax) and the time to peak plasma concentration (Tmax) were determined from the experimental values. The areas under the plasma concentration–time curve (AUC) of XR11576 were estimated using the experimental values (trapezoidal rule) with extrapolation to infinity (AUC0–∞) using the apparent terminal rate constant, defined as the slope of the final three to four data points of the log-linear concentration–time plot. The total body clearance (CL) was calculated as the ratio between the administered dose and the AUC0–∞. The extent of accumulation (R0) in plasma was calculated from AUC0–24 h (days 4 or 5)/AUC0–24 h (day 1). The fraction of the administered dose (Fe) excreted in urine and the cumulative amount of XR11576 excreted in urine (Ae) was determined. PK data analysis was carried out using a noncompartmental analysis approach with the aid of WinNonlin Version Pron4.0.1 (Pharsight, Cary NC 27511).
A nonlinear power model was used to assess dose proportionality separately for each day during cycles 1 and 2. Statistical analyses were performed using SAS version 8.1.

[2] = mice; cited from earlier work
[3] = dogs, cited from earlier work
[4] = Urinary excretion in patients; type: in vivo, human; settings: within 24 h after drug administration
Procedure: as §1
The apparent terminal half-life (T1/2(z)) of XR11576 was calculated as ln 2/k, where k is the terminal elimination rate constant (expressed in h^−1). The peak plasma concentrations (Cmax) and the time to peak plasma concentration (Tmax) were determined from the experimental values. […] The total body clearance (CL) was calculated as the ratio between the administered dose and the AUC0–∞. The extent of accumulation (R0) in plasma was calculated from AUC0–24 h (days 4 or 5)/AUC0–24 h (day 1). The fraction of the administered dose (Fe) excreted in urine and the cumulative amount of XR11576 excreted in urine (Ae) was determined. […]

[5] = design: method as in data on file, FPD 1055; settings: ref data on file, FPD 1055; cited from earlier work
[6] = system: murine and human tumour cell lines; design: method as in Mistry et al, 2002; Lewis et al, 2003; settings: murine leukaemias and human colon, breast, ovarian and lung carcinoma cell lines; ref Mistry et al, 2002; Lewis et al, 2003; cited from earlier work
[7] = human, 30 mg day^−1, first treatment course, mean, N=3
[8] = human, 60 mg day^−1, first treatment course, mean, N=4
[9] = human, 120 mg day^−1, first treatment course, mean, N=8
[10] = human, 150 mg day^−1, first treatment course, mean, N=3
[11] = human, 180 mg day^−1, first treatment course, mean, N=3

COc1cccc2c1ccc1nc3cccc(C(=O)N[C@H](C)CN(C)C)c3nc12 [XR11576, 4-methoxy-benzo[a]phenazine-11-carboxylic acid (2-dimethulamino-1-R-methyl-ethyl)-amide]
R0 (ratio of accumulation) ([1]; 30 mg day^−1, first treatment course, mean, N=3): 1.56
R0 (ratio of accumulation) ([1]; 60 mg day^−1, first treatment course, mean, N=4): 1.87
R0 (ratio of accumulation) ([1]; 120 mg day^−1, first treatment course, mean, N=8): 1.93
R0 (ratio of accumulation) ([1]; 150 mg day^−1, first treatment course, mean, N=3): 1.53
R0 (ratio of accumulation) ([1]; 180 mg day^−1, first treatment course, mean, N=3): 1.34
increase of systemic exposure with dose ([1]; 30–180 mg day^−1): greater than dose-proportional
time of maximum peak drug levels post dose ([1]; all patients): 3.69 ± 0.79 h
accumulation in plasma: exposure higher by the last day of dosing ([1]; days 1–5 dosing): approximately two-fold
interpatient coefficients of variation in AUC values ([1]; human, in vivo): > 100%
relationship between apparent CL/F and BSA ([1]; human, in vivo): no relationship
AUC(0-inf) [1, 7]: 50 ng·h/mL
AUC(0-t) [1, 7]: 36.2 ng·h/mL
Cmax [1, 7]: 8.07 ng/mL
Tmax [1, 7]: 2.5 h
half-life ([1]; human, 30 mg day^−1, first treatment course, mean, N=3, read-out: T1/2 (converted)): 5.53 h
AUC(0-inf) [1, 8]: 517 ng·h/mL
AUC(0-t) [1, 8]: 178 ng·h/mL
Cmax [1, 8]: 21.7 ng/mL
Tmax [1, 8]: 3.5 h
half-life ([1]; human, 60 mg day^−1, first treatment course, mean, N=4, read-out: T1/2 (converted)): 68.8 h
AUC(0-inf) [1, 9]: 535 ng·h/mL
AUC(0-t) [1, 9]: 329 ng·h/mL
Cmax [1, 9]: 41.1 ng/mL
Tmax [1, 9]: 3.75 h
half-life ([1]; human, 120 mg day^−1, first treatment course, mean, N=8, read-out: T1/2 (converted)): 31.2 h
AUC(0-inf) [1, 10]: 2240 ng·h/mL
AUC(0-t) [1, 10]: 1710 ng·h/mL
Cmax [1, 10]: 167 ng/mL
Tmax [1, 10]: 4 h
AUC(0-inf) [1, 11]: 1810 ng·h/mL
AUC(0-t) [1, 11]: 970 ng·h/mL
Cmax [1, 11]: 112 ng/mL
Tmax [1, 11]: 4.67 h
half-life ([1]; human, all dose levels, read-out: mean terminal half-life): ≤ 70 h
effect of food on bioavailability [2]: food reduced the bioavailability
oral availability [2]: 72±25%
reduction in the systemic exposure ([3]; repeated daily oral doses): approximately 60%
increase of systemic exposure with dose ([3]; single oral administration): more than dose-proportionally
administered dose excreted unchanged in urine [4]: Less than 0.5%
cardiac toxicity [5]: no cardiac toxicity was detected
antitumour activity in vitro [6]: exerted antitumour activity
